# Experimental data reported in ChEMBL document CHEMBL1201862, “PubChem BioAssay data set” (2004).
#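 A five-concentration, 48-hour dose response in 96-well plates underlies each endpoint, interpolated linearly between surrounding concentrations. At the GI50, growth is halved.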 Active and inactive are the calls of the source. Rule as the data show it: active = GI50 up to about 1.1 µM and inactive = higher.
# Columns and labels:
# Assay in all cases: growth of human tumour cells (NCI), 48 h
# Malme-3M = system: Malme-3M
# OVCAR-5 = system: OVCAR-5
# SN12C = system: SN12C
# NCI-H460 = system: NCI-H460
# ACHN = system: ACHN
# TK-10 = system: TK-10
# CCRF-CEM = system: CCRF-CEM
# SW-620 = system: SW-620
# SK-MEL-5 = system: SK-MEL-5
# KM12 = system: KM12
# RXF 393 = system: RXF 393
# MDA-N = system: MDA-N
# 786-0 = system: 786-0
# UO-31 = system: UO-31
# K562 = system: K562
# OVCAR-8 = system: OVCAR-8
# HCT-15 = system: HCT-15
# HL-60 = system: HL-60
# MDA-MB-231 = system: MDA-MB-231
# NCI-H23 = system: NCI-H23
# MDA-MB-435 = system: MDA-MB-435
# HOP-92 = system: HOP-92
# SF-268 = system: SF-268
# MOLT-4 = system: MOLT-4
# A549 = system: A549
# IGROV-1 = system: IGROV-1
# HOP-62 = system: HOP-62
# HCT-116 = system: HCT-116
# SK-OV-3 = system: SK-OV-3
# SF-539 = system: SF-539
# HCC 2998 = system: HCC 2998
# OVCAR-3 = system: OVCAR-3
# BT-549 = system: BT-549
# U-251 = system: U-251
# SNB-19 = system: SNB-19
# T47D = system: T47D
# UACC-257 = system: UACC-257
# A498 = system: A498
# DU-145 = system: DU-145
# NCI-H226 = system: NCI-H226
# LOX IMVI = system: LOX IMVI
# SR = system: SR
# SNB-75 = system: SNB-75
# PC-3 = system: PC-3
# EKVX = system: EKVX
# MCF7 = system: MCF7
# SK-MEL-2 = system: SK-MEL-2
# HT-29 = system: HT-29
# M14 = system: M14
# SK-MEL-28 = system: SK-MEL-28
# Hs-578T = system: Hs-578T
# SF-295 = system: SF-295
# UACC-62 = system: UACC-62
# RPMI-8226 = system: RPMI-8226
# CAKI-1 = system: CAKI-1
# NCI-H522 = system: NCI-H522
# OVCAR-4 = system: OVCAR-4
# COLO 205 = system: COLO 205
# NCI/ADR-RES = system: NCI/ADR-RES
smiles,measurement,setting,value
CC1(CCC2C=CCC2)CCCNC1=S (configuration not stated),GI50,Malme-3M,> 10 µM (inactive)
same,GI50,OVCAR-5,> 10 µM (inactive)
same,GI50,SN12C,> 10 µM (inactive)
same,GI50,NCI-H460,> 10 µM (inactive)
same,GI50,ACHN,> 10 µM (inactive)
same,GI50,TK-10,> 10 µM (inactive)
same,GI50,CCRF-CEM,> 10 µM (inactive)
same,GI50,SW-620,> 10 µM (inactive)
same,GI50,SK-MEL-5,> 10 µM (inactive)
same,GI50,KM12,> 10 µM (inactive)
same,GI50,RXF 393,> 10 µM (inactive)
same,GI50,MDA-N,> 10 µM (inactive)
same,GI50,786-0,> 10 µM (inactive)
same,GI50,UO-31,> 10 µM (inactive)
same,GI50,K562,> 10 µM (inactive)
same,GI50,OVCAR-8,> 10 µM (inactive)
same,GI50,HCT-15,> 10 µM
same,GI50,HL-60,> 10 µM (inactive)
same,GI50,MDA-MB-231,> 10 µM (inactive)
same,GI50,NCI-H23,> 10 µM (inactive)
same,GI50,MDA-MB-435,> 10 µM (inactive)
same,GI50,HOP-92,> 10 µM (inactive)
same,GI50,SF-268,> 10 µM (inactive)
same,GI50,MOLT-4,> 10 µM (inactive)
same,GI50,A549,> 10 µM (inactive)
same,GI50,IGROV-1,> 10 µM (inactive)
same,GI50,HOP-62,> 10 µM (inactive)
same,GI50,HCT-116,> 10 µM (inactive)
same,GI50,SK-OV-3,> 10 µM (inactive)
same,GI50,SF-539,> 10 µM (inactive)
same,GI50,HCC 2998,> 10 µM (inactive)
same,GI50,OVCAR-3,> 10 µM (inactive)
same,GI50,BT-549,> 10 µM (inactive)
same,GI50,U-251,> 10 µM (inactive)
same,GI50,SNB-19,> 10 µM (inactive)
same,GI50,T47D,> 10 µM (inactive)
same,GI50,UACC-257,> 10 µM (inactive)
same,GI50,A498,> 10 µM (inactive)
same,GI50,DU-145,> 10 µM (inactive)
same,GI50,NCI-H226,> 10 µM (inactive)
same,GI50,LOX IMVI,> 10 µM (inactive)
same,GI50,SR,> 10 µM (inactive)
same,GI50,SNB-75,> 10 µM (inactive)
same,GI50,PC-3,> 10 µM (inactive)
same,GI50,EKVX,> 10 µM (inactive)
same,GI50,MCF7,> 10 µM (inactive)
same,GI50,SK-MEL-2,> 10 µM (inactive)
same,GI50,HT-29,> 10 µM (inactive)
same,GI50,M14,> 10 µM (inactive)
same,GI50,SK-MEL-28,> 10 µM (inactive)
same,GI50,Hs-578T,> 10 µM (inactive)
same,GI50,SF-295,> 10 µM (inactive)
same,GI50,UACC-62,> 10 µM (inactive)
same,GI50,RPMI-8226,> 10 µM (inactive)
COC(=O)c1ccccc1CC1Cc2cccc(C)c2C1=O (configuration not stated),GI50,Malme-3M,19.2 µM (inactive)
same,GI50,OVCAR-5,57.5 µM (inactive)
same,GI50,SN12C,50.5 µM (inactive)
same,GI50,NCI-H460,47.5 µM (inactive)
same,GI50,ACHN,34.8 µM (inactive)
same,GI50,TK-10,21.3 µM (inactive)
same,GI50,CCRF-CEM,36.8 µM (inactive)
same,GI50,SW-620,42.4 µM (inactive)
same,GI50,SK-MEL-5,21.4 µM (inactive)
same,GI50,KM12,27 µM (inactive)
same,GI50,RXF 393,24.7 µM (inactive)
same,GI50,MDA-N,36.1 µM (inactive)
same,GI50,786-0,47.5 µM (inactive)
same,GI50,CAKI-1,80.2 µM (inactive)
same,GI50,UO-31,22.7 µM (inactive)
same,GI50,K562,22.3 µM (inactive)
same,GI50,OVCAR-8,35 µM (inactive)
same,GI50,HCT-15,24 µM
same,GI50,MDA-MB-231,51.5 µM (inactive)
same,GI50,NCI-H23,57.5 µM (inactive)
same,GI50,MDA-MB-435,23.3 µM (inactive)
same,GI50,HOP-92,23.8 µM (inactive)
same,GI50,SF-268,37.8 µM (inactive)
same,GI50,MOLT-4,19.9 µM (inactive)
same,GI50,A549,51.8 µM (inactive)
same,GI50,IGROV-1,46.5 µM (inactive)
same,GI50,HOP-62,> 100 µM (inactive)
same,GI50,HCT-116,23.8 µM (inactive)
same,GI50,SK-OV-3,38.9 µM (inactive)
same,GI50,SF-539,89.7 µM (inactive)
same,GI50,HCC 2998,40.3 µM (inactive)
same,GI50,NCI-H522,24.8 µM (inactive)
same,GI50,OVCAR-3,33.7 µM (inactive)
same,GI50,BT-549,30 µM (inactive)
same,GI50,U-251,33 µM (inactive)
same,GI50,SNB-19,52.5 µM (inactive)
same,GI50,T47D,25.8 µM (inactive)
same,GI50,UACC-257,34 µM (inactive)
same,GI50,OVCAR-4,27.7 µM (inactive)
same,GI50,DU-145,96.4 µM (inactive)
same,GI50,NCI-H226,27 µM (inactive)
same,GI50,LOX IMVI,22.4 µM (inactive)
same,GI50,COLO 205,20.3 µM (inactive)
same,GI50,SNB-75,22.7 µM (inactive)
same,GI50,NCI/ADR-RES,32.7 µM (inactive)
same,GI50,PC-3,24 µM (inactive)
same,GI50,EKVX,11.7 µM (inactive)
same,GI50,MCF7,26.6 µM (inactive)
same,GI50,SK-MEL-2,21.8 µM (inactive)
same,GI50,HT-29,22.9 µM (inactive)
same,GI50,M14,34.8 µM (inactive)
same,GI50,SK-MEL-28,32.5 µM (inactive)
same,GI50,Hs-578T,38.3 µM (inactive)
same,GI50,SF-295,38.9 µM (inactive)
same,GI50,UACC-62,30.5 µM (inactive)
COC(=O)[C@@H](OC(C)=O)[C@@H](OC(C)=O)c1nnc2ccc(Cl)nn12,GI50,Malme-3M,> 100 µM (inactive)
same,GI50,OVCAR-5,> 100 µM (inactive)
same,GI50,SN12C,> 100 µM (inactive)
same,GI50,NCI-H460,> 100 µM (inactive)
same,GI50,ACHN,> 100 µM (inactive)
same,GI50,TK-10,> 100 µM (inactive)
same,GI50,CCRF-CEM,> 100 µM (inactive)
same,GI50,SW-620,> 100 µM (inactive)
same,GI50,SK-MEL-5,> 100 µM (inactive)
same,GI50,KM12,> 100 µM (inactive)
same,GI50,RXF 393,> 100 µM (inactive)
same,GI50,MDA-N,> 100 µM (inactive)
same,GI50,786-0,> 100 µM (inactive)
same,GI50,CAKI-1,92 µM (inactive)
same,GI50,OVCAR-8,> 100 µM (inactive)
same,GI50,HCT-15,> 100 µM
same,GI50,HL-60,> 100 µM (inactive)
same,GI50,MDA-MB-231,> 100 µM (inactive)
same,GI50,NCI-H23,> 100 µM (inactive)
same,GI50,MDA-MB-435,> 100 µM (inactive)
same,GI50,SF-268,> 100 µM (inactive)
same,GI50,MOLT-4,> 100 µM (inactive)
same,GI50,A549,> 100 µM (inactive)
same,GI50,IGROV-1,85.3 µM (inactive)
same,GI50,HOP-62,> 100 µM (inactive)
same,GI50,HCT-116,> 100 µM (inactive)
same,GI50,SK-OV-3,> 100 µM (inactive)
same,GI50,SF-539,> 100 µM (inactive)
same,GI50,HCC 2998,36.2 µM (inactive)
same,GI50,NCI-H522,22.2 µM (inactive)
same,GI50,OVCAR-3,> 100 µM (inactive)
same,GI50,BT-549,> 100 µM (inactive)
same,GI50,U-251,> 100 µM (inactive)
same,GI50,SNB-19,> 100 µM (inactive)
same,GI50,T47D,> 100 µM (inactive)
same,GI50,UACC-257,87.9 µM (inactive)
same,GI50,OVCAR-4,> 100 µM (inactive)
same,GI50,A498,> 100 µM (inactive)
same,GI50,DU-145,> 100 µM (inactive)
same,GI50,LOX IMVI,> 100 µM (inactive)
same,GI50,COLO 205,> 100 µM (inactive)
same,GI50,NCI/ADR-RES,> 100 µM (inactive)
same,GI50,PC-3,> 100 µM (inactive)
same,GI50,EKVX,> 100 µM (inactive)
same,GI50,MCF7,> 100 µM (inactive)
same,GI50,SK-MEL-2,> 100 µM (inactive)
same,GI50,HT-29,> 100 µM (inactive)
same,GI50,M14,> 100 µM (inactive)
same,GI50,SK-MEL-28,97.7 µM (inactive)
same,GI50,Hs-578T,> 100 µM (inactive)
same,GI50,SF-295,> 100 µM (inactive)
same,GI50,UACC-62,> 100 µM (inactive)
same,GI50,RPMI-8226,62.2 µM (inactive)
